BindingDB's records for doi:10.1021/jm960395q (Shionogi, 1996)

Tests used:
[1] = target: T1, Phospholipase A2 (Homo sapiens, UniProt P04054); experiment: Inhibition of recombinant human secretory Phospholipase A2 (s-PLA2)
[2] = Inhibitory activity against recombinant human secretory Phospholipase A2 (s-PLA2) by phosphatidylcholine/deoxycholate assay(PC/DOC).
[3] = target: T1, Phospholipase A2; experiment: Inhibition of recombinant human secretory phospholipase A2 (sPLA2), chromogenic screening assay.
[4] = Inhibitory activity against recombinant human secretory phospholipase A2 (s-PLA2) by phosphatidylcholine/deoxycholate assay (PC/DOC).

T1 sequence (P04054 whole entry): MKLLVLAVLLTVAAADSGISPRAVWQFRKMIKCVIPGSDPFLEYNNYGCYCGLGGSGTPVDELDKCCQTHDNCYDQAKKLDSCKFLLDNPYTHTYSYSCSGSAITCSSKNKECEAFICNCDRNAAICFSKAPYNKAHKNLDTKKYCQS

IC50 [1]	IC50 [2]	IC50 [3]	IC50 [4]	SMILES
400 nM				CCC1C(C(N)=O)=C2C(OCC(=O)O)=CC=CN2/C1=C\c1ccccc1Cc1ccccc1 (configuration not stated) [{3-[1-(2-Benzyl-phenyl)-meth-(Z)-ylidene]-1-carbamoyl-2-ethyl-2,3-dihydro-indolizin-8-yloxy}-acetic acid]
240 nM				CCC1C(CC(N)=O)=C2C(OCC(=O)O)=CC=CN2/C1=C\c1cccc(C(F)(F)F)c1 (configuration not stated) [{1-Carbamoylmethyl-2-ethyl-3-[1-(3-trifluoromethyl-phenyl)-meth-(Z)-ylidene]-2,3-dihydro-indolizin-8-yloxy}-acetic acid]
30 nM	45000 nM			CCc1c(C(=O)C(N)=O)c2c(OCn3ncnn3)cccn2c1Cc1cccc(Cl)c1 [2-[3-(3-Chloro-benzyl)-2-ethyl-8-(4H-tetrazol-2-ylmethoxy)-indolizin-1-yl]-2-oxo-acetamide]
67 nM				CCC1C(CC(N)=O)=C2C(OCC(=O)O)=CC=CN2/C1=C\c1cccc(Cl)c1Cl (configuration not stated) [{1-Carbamoylmethyl-3-[1-(2,3-dichloro-phenyl)-meth-(Z)-ylidene]-2-ethyl-2,3-dihydro-indolizin-8-yloxy}-acetic acid]
55 nM				CCc1c(C(=O)C(N)=O)c2c(OCc3ccc4ccccc4n3)cccn2c1Cc1ccccc1-c1ccccc1 [2-[3-Biphenyl-2-ylmethyl-2-ethyl-8-(quinolin-2-ylmethoxy)-indolizin-1-yl]-2-oxo-acetamide]
420 nM				CC1C(C(N)=O)=C2C(OCC(=O)O)=CC=CN2/C1=C\c1ccccc1 (configuration not stated) [{1-Carbamoyl-2-methyl-3-[1-phenyl-meth-(Z)-ylidene]-2,3-dihydro-indolizin-8-yloxy}-acetic acid]
910 nM				CC1C(CC(N)=O)=C2C(OCCCC(=O)O)=CC=CN2/C1=C\c1ccccc1 (configuration not stated) [4-{1-Carbamoylmethyl-2-methyl-3-[1-phenyl-meth-(Z)-ylidene]-2,3-dihydro-indolizin-8-yloxy}-butyric acid]
		9 nM	6 nM	NC(=O)C(=O)c1c(C2CC2)c(Cc2ccccc2-c2ccccc2)n2cccc(OCC(=O)O)c12 [(1-Aminooxalyl-3-biphenyl-2-ylmethyl-2-cyclopropyl-indolizin-8-yloxy)-acetic acid]
160 nM				CCC1C(CC(N)=O)=C2C(OCC(=O)O)=CC=CN2/C1=C\c1ccccc1 (configuration not stated) [{1-Carbamoylmethyl-2-ethyl-3-[1-phenyl-meth-(Z)-ylidene]-2,3-dihydro-indolizin-8-yloxy}-acetic acid]
100 nM	420000 nM			CCC1C(CC(N)=O)=C2C(OCC(=O)O)=CC=CN2/C1=C\c1ccccc1-c1ccccc1 (configuration not stated) [{3-[1-Biphenyl-2-yl-meth-(Z)-ylidene]-1-carbamoylmethyl-2-ethyl-2,3-dihydro-indolizin-8-yloxy}-acetic acid]
		44 nM	130 nM	CCc1c(C(=O)C(N)=O)c2c(OCCC(=O)O)cccn2c1Cc1ccccc1-c1ccccc1 [3-(1-Aminooxalyl-3-biphenyl-2-ylmethyl-2-ethyl-indolizin-8-yloxy)-propionic acid]
12000 nM				CC1C(CC(N)=O)=C2C(OCC(=O)O)=CC=CN2C1Cc1ccccc1 (configuration not stated) [(3-Benzyl-1-carbamoylmethyl-2-methyl-2,3-dihydro-indolizin-8-yloxy)-acetic acid]
		13 nM	26 nM	NC(=O)Cc1c(C2CC2)c(Cc2ccccc2-c2ccccc2)n2cccc(OCC(=O)O)c12 [(3-Biphenyl-2-ylmethyl-1-carbamoylmethyl-2-cyclopropyl-indolizin-8-yloxy)-acetic acid]
		9 nM	3 nM	CCc1c(C(=O)C(N)=O)c2c(OCC(=O)O)cccn2c1Cc1cccc(C(F)(F)F)c1 [[1-Aminooxalyl-2-ethyl-3-(3-trifluoromethyl-benzyl)-indolizin-8-yloxy]-acetic acid]
		36 nM	120 nM	CCc1c(C(=O)C(N)=O)c2c(OCC(=O)O)cccn2c1Cc1ccccc1[N+](=O)[O-] [[1-Aminooxalyl-2-ethyl-3-(2-nitro-benzyl)-indolizin-8-yloxy]-acetic acid]
		30 nM	135 nM	CCc1c(C(N)=O)c2c(OCC(=O)O)cccn2c1Cc1cccc2ccccc12 [(1-Carbamoyl-2-ethyl-3-naphthalen-1-ylmethyl-indolizin-8-yloxy)-acetic acid]
170 nM				CCC1C(CC(N)=O)=C2C(OCC(=O)O)=CC=CN2/C1=C\c1ccc2ccccc2c1 (configuration not stated) [{1-Carbamoylmethyl-2-ethyl-3-[1-naphthalen-2-yl-meth-(Z)-ylidene]-2,3-dihydro-indolizin-8-yloxy}-acetic acid]
		15 nM	52 nM	CCc1c(CC(N)=O)c2c(OCC(=O)O)cccn2c1Cc1cccc(Cl)c1 [[1-Carbamoylmethyl-3-(3-chloro-benzyl)-2-ethyl-indolizin-8-yloxy]-acetic acid]
		11 nM	13 nM	CCc1c(C(=O)C(N)=O)c2c(OCC(=O)O)cccn2c1Cc1cccs1 [(1-Aminooxalyl-2-ethyl-3-thiophen-2-ylmethyl-indolizin-8-yloxy)-acetic acid]
15000 nM				COC(=O)CCCOC1=CC=CN2C1=C(CC(N)=O)C(C)C2Cc1ccccc1 (configuration not stated) [4-(3-Benzyl-1-carbamoylmethyl-2-methyl-2,3-dihydro-indolizin-8-yloxy)-butyric acid methyl ester]
		43 nM	160 nM	COC(=O)COc1cccn2c(CC3CCCCC3)c(C3CC3)c(C(=O)C(N)=O)c12 [(1-Aminooxalyl-3-cyclohexylmethyl-2-cyclopropyl-indolizin-8-yloxy)-acetic acid methyl ester]
		17 nM	78 nM	CCCC(C)Cc1c(CC)c(C(=O)C(N)=O)c2c(OCC(=O)O)cccn12 (configuration not stated) [[1-Aminooxalyl-2-ethyl-3-(2-methyl-pentyl)-indolizin-8-yloxy]-acetic acid]
25 nM	130000 nM			CCC1C(CC(N)=O)=C2C(OCC(=O)O)=CC=CN2/C1=C\c1cccc2ccccc12 (configuration not stated) [{1-Carbamoylmethyl-2-ethyl-3-[1-naphthalen-1-yl-meth-(Z)-ylidene]-2,3-dihydro-indolizin-8-yloxy}-acetic acid]
200 nM				CCC1C(CC(N)=O)=C2C(OCC(=O)O)=CC=CN2/C1=C\c1cccc(Cl)c1 (configuration not stated) [{1-Carbamoylmethyl-3-[1-(3-chloro-phenyl)-meth-(Z)-ylidene]-2-ethyl-2,3-dihydro-indolizin-8-yloxy}-acetic acid]
